Test results taken from patent US10919911B2, “Tricyclic ASK1 inhibitors” (Terns, Inc., priority 2018, dated 2021).

biological target: ASK1 kinase (Homo sapiens (Human), UniProt Q99683); assay: RBC Kinase Assay (33P-ATP radiometric, myelin basic protein substrate); type: biochemical; settings: 20 ng ASK1 kinase, MBP substrate, 120 min at room temperature, 1% DMSO
Method: Example B1. RBC Kinase Assay Protocol
Base Reaction buffer: 20 mM Hepes (pH 7.5), 10 mM MgCl2, 1 mM EGTA, 0.02% Brij35, 0.02 mg/ml BSA, 0.1 mM Na3VO4, 2 mM DTT, and 1% DMSO were used for the assay.
Myelin base protein (MPB) was prepared in freshly prepared Base Reaction Buffer. 20 ng of ASK1 kinase was delivered into the substrate solution and gently mixed. Compounds in DMSO were delivered into the kinase reaction mixture (final DMSO concentration 1%). Commercially available 33P-ATP was delivered into the reaction mixture to initiate the reaction. The kinase reaction was incubated for 120 min. at room temperature. Reactions were spotted onto P81 ion exchange paper (Whatman #3698-915). Filters were washed extensively in 0.75% Phosphoric acid. Radioactivity on filters was read, and IC50 values were determined.

Chain of ASK1 kinase (Q99683 whole entry): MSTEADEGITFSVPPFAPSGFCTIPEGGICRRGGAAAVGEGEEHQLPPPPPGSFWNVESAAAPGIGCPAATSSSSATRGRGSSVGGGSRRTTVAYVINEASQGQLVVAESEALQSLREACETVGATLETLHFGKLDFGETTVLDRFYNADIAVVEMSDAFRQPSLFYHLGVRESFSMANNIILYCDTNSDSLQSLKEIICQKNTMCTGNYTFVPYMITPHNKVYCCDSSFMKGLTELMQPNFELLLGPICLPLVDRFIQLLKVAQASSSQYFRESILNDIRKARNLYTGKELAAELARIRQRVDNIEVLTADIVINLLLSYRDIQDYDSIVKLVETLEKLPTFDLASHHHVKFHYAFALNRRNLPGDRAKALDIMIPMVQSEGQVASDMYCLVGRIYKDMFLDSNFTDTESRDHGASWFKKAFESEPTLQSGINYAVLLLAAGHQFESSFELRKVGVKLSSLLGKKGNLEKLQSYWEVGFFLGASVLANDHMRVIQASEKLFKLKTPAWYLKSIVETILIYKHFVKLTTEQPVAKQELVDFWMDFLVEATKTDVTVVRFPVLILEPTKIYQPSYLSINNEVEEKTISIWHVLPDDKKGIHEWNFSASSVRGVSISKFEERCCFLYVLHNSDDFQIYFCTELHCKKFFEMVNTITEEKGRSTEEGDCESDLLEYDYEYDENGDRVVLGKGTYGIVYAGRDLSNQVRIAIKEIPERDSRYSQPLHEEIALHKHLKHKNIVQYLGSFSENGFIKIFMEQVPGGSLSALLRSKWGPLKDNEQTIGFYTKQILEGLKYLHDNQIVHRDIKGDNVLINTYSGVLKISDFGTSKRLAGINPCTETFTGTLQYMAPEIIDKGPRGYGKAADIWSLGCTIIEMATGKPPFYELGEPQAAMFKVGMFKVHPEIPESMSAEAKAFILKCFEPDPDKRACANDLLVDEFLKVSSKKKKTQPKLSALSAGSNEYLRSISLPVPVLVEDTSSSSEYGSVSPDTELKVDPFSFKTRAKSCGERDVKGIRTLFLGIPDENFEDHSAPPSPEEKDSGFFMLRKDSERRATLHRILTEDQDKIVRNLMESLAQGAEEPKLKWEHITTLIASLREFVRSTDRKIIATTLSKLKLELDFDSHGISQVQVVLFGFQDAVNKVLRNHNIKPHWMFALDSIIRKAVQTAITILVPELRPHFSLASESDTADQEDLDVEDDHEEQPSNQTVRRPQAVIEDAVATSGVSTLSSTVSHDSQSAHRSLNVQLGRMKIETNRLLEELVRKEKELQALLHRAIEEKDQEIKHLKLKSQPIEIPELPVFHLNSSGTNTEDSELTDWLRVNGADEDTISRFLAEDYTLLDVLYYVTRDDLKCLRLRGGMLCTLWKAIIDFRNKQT

IC50 | Structure (SMILES)
4.5 nM | Cc1cc(F)c(C(=O)Nc2cccc3c2OC[C@@H](CF)n2nnnc2-3)cc1-n1cnc(C2CC2)c1 [Example 30, (S)-5-(4-cyclopropyl-1H-imidazol-1-yl)-2-fluoro-N-(5-(fluoromethyl)-5,6-dihydrobenzo[f]tetrazolo[1,5-d][1,4]oxazepin-8-yl)-4-methylbenzamide]
0.5 nM | CC1(C)COc2c(NC(=O)c3cc(-n4cnc(C5CC5)c4)c(N4CCOCC4)cn3)cccc2-c2nnnn21 [Example 37, 4-(4-cyclopropyl-1H-imidazol-1-yl)-N-(5,5-dimethyl-5,6-dihydrobenzo[f]tetrazolo[1,5-d][1,4]oxazepin-8-yl)-5-morpholinopicolinamide]
2.2 nM | C[C@@H]1COCCN1c1cnc(C(=O)Nc2cccc3c2OCCn2nnnc2-3)cc1-n1cnc(C2CC2)c1 [Example 70, (R)-4-(4-cyclopropyl-1H-imidazol-1-yl)-N-(5,6-dihydrobenzo[f]tetrazolo[1,5-d][1,4]oxazepin-8-yl)-5-(3-methylmorpholino)picolinamide]
2.5 nM | Cc1cc(F)c(C(=O)Nc2cccc3c2O[C@@H](C)Cn2cnnc2-3)cc1-n1cnc(C2CC2)c1 [Example 35, (S)-5-(4-cyclopropyl-1H-imidazol-1-yl)-2-fluoro-4-methyl-N-(6-methyl-5,6-dihydrobenzo[f][1,2,4]triazolo[4,3-d][1,4]oxazepin-8-yl)benzamide]
2.2 nM | C[C@@H]1COc2c(NC(=O)c3cc(-n4cnc(C5CC5)c4)c(N4CCOCC4)cn3)cccc2-c2nnnn21 [Example 19, (R)-4-(4-cyclopropyl-1H-imidazol-1-yl)-N-(5-methyl-5,6-dihydrobenzo[f]tetrazolo[1,5-d][1,4]oxazepin-8-yl)-5-morpholinopicolinamide]
5.3 nM | CC(C)Oc1cnc(C(=O)Nc2cccc3c2OC[C@H](C)n2nnnc2-3)cc1-n1cnc(C2CC2)c1 [Example 71, (S)-4-(4-cyclopropyl-1H-imidazol-1-yl)-5-isopropoxy-N-(5-methyl-5,6-dihydrobenzo[f]tetrazolo[1,5-d][1,4]oxazepin-8-yl)picolinamide]
2.1 nM | C[C@@H]1CN(c2cnc(C(=O)Nc3cccc4c3OCCn3nnnc3-4)cc2-n2cnc(C3CC3)c2)CCO1 [Example 55, (R)-4-(4-cyclopropyl-1H-imidazol-1-yl)-N-(5,6-dihydrobenzo[f]tetrazolo[1,5-d][1,4]oxazepin-8-yl)-5-(2-methylmorpholino)picolinamide]
1.8 nM | CC(C)Oc1cnc(C(=O)Nc2cccc3c2OCCn2nnnc2-3)cc1-n1cnc(C2CC2)c1 [Example 68, 4-(4-cyclopropyl-1H-imidazol-1-yl)-N-(5,6-dihydrobenzo[f]tetrazolo[1,5-d][1,4]oxazepin-8-yl)-5-isopropoxypicolinamide]
5.8 nM | Cc1cc(F)c(C(=O)Nc2cccc3c2OC[C@@H](C)n2nnnc2-3)cc1-n1cnc(C2CC2)c1 [Example 5, (R)-5-(4-cyclopropyl-1H-imidazol-1-yl)-2-fluoro-4-methyl-N-(5-methyl-5,6-dihydrobenzo[f]tetrazolo[1,5-d][1,4]oxazepin-8-yl)benzamide]
5.4 nM | C[C@@H]1COc2c(NC(=O)c3cc(-n4cnc(C5CC5)c4)ccn3)cccc2-c2nncn21 [Example 11, (R)-4-(4-cyclopropyl-1H-imidazol-1-yl)-N-(5-methyl-5,6-dihydrobenzo[f][1,2,4]triazolo[4,3-d][1,4]oxazepin-8-yl)picolinamide]
4.1 nM | Cc1cc(F)c(C(=O)Nc2cccc3c2O[C@H](C)Cn2cnnc2-3)cc1-n1cnc(C2CC2)c1 [Example 34, (R)-5-(4-cyclopropyl-1H-imidazol-1-yl)-2-fluoro-4-methyl-N-(6-methyl-5,6-dihydrobenzo[f][1,2,4]triazolo[4,3-d][1,4]oxazepin-8-yl)benzamide]
6 nM | O=C(Nc1cccc2c1OCC1(CC1)n1nnnc1-2)c1cc(-n2cnc(C3CC3)c2)c(N2CCOCC2)cn1 [Example 20, 4-(4-cyclopropyl-1H-imidazol-1-yl)-5-morpholino-N-(6H-spiro[benzo[f]tetrazolo[1,5-d][1,4]oxazepine-5,1′-cyclopropan]-8-yl)picolinamide]
2.7 nM | CC1(O)CCN(c2cnc(C(=O)Nc3cccc4c3OCCn3nnnc3-4)cc2-n2cnc(C3CC3)c2)C1 (stereo not drawn) [Example 63, 4-(4-cyclopropyl-1H-imidazol-1-yl)-N-(5,6-dihydrobenzo[f]tetrazolo[1,5-d][1,4]oxazepin-8-yl)-5-(3-hydroxy-3-methylpyrrolidin-1-yl)picolinamide]
0.9 nM | Cc1cc(F)c(C(=O)Nc2cccc3c2OC[C@H](CO)n2nnnc2-3)cc1-n1cnc(C2CC2)c1 [Example 23, (S)-5-(4-cyclopropyl-1H-imidazol-1-yl)-2-fluoro-N-(5-(hydroxymethyl)-5,6-dihydrobenzo[f]tetrazolo[1,5-d][1,4]oxazepin-8-yl)-4-methylbenzamide]
3.9 nM | O=C(Nc1cccc2c1OCCn1nnnc1-2)c1cc(-n2cnc(C3CC3)c2)ccn1 [Example 50, 4-(4-cyclopropyl-1H-imidazol-1-yl)-N-(5,6-dihydrobenzo[f]tetrazolo[1,5-d][1,4]oxazepin-8-yl)picolinamide]
5.1 nM | Cc1cc(F)c(C(=O)Nc2cccc3c2OC[C@@H]([C@H](C)O)n2nnnc2-3)cc1-n1cnc(C2CC2)c1 [Example 48, 5-(4-cyclopropyl-1H-imidazol-1-yl)-2-fluoro-N—((S)-5-((S)-1-hydroxyethyl)-5,6-dihydrobenzo[f]tetrazolo[1,5-d][1,4]oxazepin-8-yl)-4-methylbenzamide]
6.8 nM | O=C(Nc1cccc2c1OC[C@H](CF)n1nnnc1-2)c1cc(-n2cnc(C3CC3)c2)ccn1 [Example 27, (R)-4-(4-cyclopropyl-1H-imidazol-1-yl)-N-(5-(fluoromethyl)-5,6-dihydrobenzo[f]tetrazolo[1,5-d][1,4]oxazepin-8-yl)picolinamide]
0.5 nM | Cc1cc(F)c(C(=O)Nc2cccc3c2OCC2(CC2)n2cnnc2-3)cc1-n1cnc(C2CC2)c1 [Example 10, 5-(4-cyclopropyl-1H-imidazol-1-yl)-2-fluoro-4-methyl-N-(6H-spiro[benzo[f][1,2,4]triazolo[4,3-d][1,4]oxazepine-5,1′-cyclopropan]-8-yl)benzamide]
0.5 nM | Cc1cc(F)c(C(=O)Nc2cccc3c2OCCn2nncc2-3)cc1-n1cnc(C2CC2)c1 [Example 40, 5-(4-cyclopropyl-1H-imidazol-1-yl)-N-(5,6-dihydrobenzo[f][1,2,3]triazolo[1,5-d][1,4]oxazepin-8-yl)-2-fluoro-4-methylbenzamide]
6.8 nM | Cc1cc(F)c(C(=O)Nc2cccc3c2OC[C@@H](C)n2cncc2-3)cc1-n1cnc(C2CC2)c1 [Example 47, (R)-5-(4-cyclopropyl-1H-imidazol-1-yl)-2-fluoro-4-methyl-N-(5-methyl-5,6-dihydrobenzo[f]imidazo[1,5-d][1,4]oxazepin-8-yl)benzamide]
5.6 nM | Cc1cc(F)c(C(=O)Nc2cccc3c2OCC(C)(C)n2cnnc2-3)cc1-n1cnc(C2CC2)c1 [Example 9, 5-(4-cyclopropyl-1H-imidazol-1-yl)-N-(5,5-dimethyl-5,6-dihydrobenzo[f][1,2,4]triazolo[4,3-d][1,4]oxazepin-8-yl)-2-fluoro-4-methylbenzamide]
5.8 nM | Cc1cc(F)c(C(=O)Nc2cccc3c2OC[C@@H](C)n2cnnc2-3)cc1-n1cnc(C2CC2)c1 [Example 1, (R)-5-(4-cyclopropyl-1H-imidazol-1-yl)-2-fluoro-4-methyl-N-(5-methyl-5,6-dihydrobenzo[f][1,2,4]triazolo[4,3-d][1,4]oxazepin-8-yl)benzamide]
6.4 nM | Cc1cc(F)c(C(=O)Nc2cccc3c2OC[C@@H]([C@@H](C)O)n2nnnc2-3)cc1-n1cnc(C2CC2)c1 [Example 53, 5-(4-cyclopropyl-1H-imidazol-1-yl)-2-fluoro-N—((S)-5-((R)-1-hydroxyethyl)-5,6-dihydrobenzo[f]tetrazolo[1,5-d][1,4]oxazepin-8-yl)-4-methylbenzamide]
11.6 nM | O=C(Nc1cccc2c1OC[C@@H](CO)n1nnnc1-2)c1cc(-n2cnc(C3CC3)c2)ccn1 [Example 18, (R)-4-(4-cyclopropyl-1H-imidazol-1-yl)-N-(5-(hydroxymethyl)-5,6-dihydrobenzo[f]tetrazolo[1,5-d][1,4]oxazepin-8-yl)picolinamide]
